Laboratory results as given in patent publication US7803757B2, “Peptides based on the sequence of human lactoferrin and their use” (PharmaSurgics in Sweden AB, priority 1998, dated 2010).
Converted amounts (≈) assume the structure as drawn. Square brackets hold non-standard residues; d marks the D form. Ends that are not written are not given here. Nle = CCCC[C@H](N)C(=O)O

How the values were obtained:
[1] = system: C. albicans; test: microbe, parasite or virus in culture; type: cell-based; settings: C. albicans, BHI diluted 1/100, twofold dilutions from 20 μg/ml
Protocol: (§1) In the examples, the minimal microbicidal concentrations (MMC) and minimal inhibitory concentrations (MIC) were determined as follows, unless otherwise specified in the examples. Bacterial or fungal strains were cultured in BHI medium over night at 37° C. A volume of the culture was transferred to a new tube with BHI and incubated for two more hours. Thereafter the cells were spun down and the pellet was suspended in BHI medium diluted 1/100 (1% BHI). The concentration of bacterial or fungal cells was spectrophotometrically determined at 650 nm. The microbial concentrations were also determined by viable counts. Peptides serially diluted in 1% BHI by twofold or tenfold steps were added in triplicate to the wells of a microtiterplate (200 μl per well). The bacterial or fungal cell solutions were added in 10 μl volumes to give a final concentration of approximately 1-5×10^5 cells per ml in the well. The microplate was incubated at 37° C. in a humid chamber for two hours. Thereafter 5 μl was taken from each well and added as a drop onto a blood agar plate and incubated over night at 37° C. The microplate was incubated for another 20 hours at 37° C. and thereafter analysed spectrophotometrically at 650 nm in a microplate reader (Emax, Molecular Devices, USA). The concentration of peptide causing a 99% reduction of the inoculum after 2 hours of incubation was defined as the MMC99%. The MIC value was defined as the concentration giving no increase in the absorbance value above the background level after 20 hours of incubation.
Also in this example one of the peptides according to the invention—this time the peptide with SEQ. ID. NO. 4, was compared to a conventional fungicide, amphotericin. The antifungal activity against C. albicans was studied. Twofold serial dilutions with a starting concentration of 20 μg/ml were used. BHI diluted 1/100 was used as growth medium.

[2] = system: C. albicans (ATCC 64549); test: microbe, parasite or virus in culture; settings: for MMC99%: C. albicans ATCC 64549, 2×10^5 cells/ml, BHI diluted 1/100; for MIC: Candida albicans, ATCC64549
Protocol: as §1
In this example the fungicidal activity of one of the peptides according to the invention, the peptide with SEQ. ID. NO. 7, was compared to the conventional antifungal agents flucytosine and fluconazole, and also to human lactoferrin (hLF). The antifungal agents were tested on C. albicans (ATCC 64549) in a concentration of 2×10^5 cells/ml. The tests were performed in BHI medium diluted 1/100.

[3] = system: C. albicans; test: MMC99% of modified peptides, C. albicans (Example 26); type: cell-based; settings: BHI diluted 1/100, pH approximately 6.7-6.9 (Table 22)
Protocol: as §1
(§2) In this example the fungicidal, and bactericidal effects of the different peptides obtained in example 22 were studied. C. albicans, E. coli and S. aureus, respectively, were incubated in BHI medium diluted 1/100, with a pH of approximately 6.7-6.9. The concentration of each peptide needed to kill 99% of the microorganisms (MMC99%) was determined.

[4] = system: E. coli; test: MMC99% of modified peptides, E. coli (Example 26); type: cell-based; settings: BHI diluted 1/100, pH approximately 6.7-6.9 (Table 22)
Protocol: as §1, §2

[5] = system: S. aureus; test: MMC99% of modified peptides, S. aureus (Example 26); type: cell-based; settings: BHI diluted 1/100, pH approximately 6.7-6.9 (Table 22)
Protocol: as §1, §2

[6] = system: E. coli O6K5; test: microbicidal activity MMC99%, E. coli O6K5 (Example 28); type: cell-based; settings: E. coli O6K5 (Table 24)
Protocol: as §1
(§3) In this example the microbicidal activity of eight of the peptides according to the invention was studied, and tested against E. coli O6K5 and C. albicans.
(§4) The concentration of each peptide needed to kill 99% of the microorganisms (MMC99%) was determined.

[7] = system: C. albicans; test: microbicidal activity MMC99%, C. albicans (Example 28); type: cell-based; settings: C. albicans (Table 24)
Protocol: as §1, §3, §4

[8] = system: C. albicans; test: MMC99% of modified peptides, C. albicans (Example 25); type: cell-based; settings: BHI diluted 1/100, pH approximately 6.7-6.9 (Table 21)
Protocol: as §1
as §2, with “examples 18-21” for “example 22”

[9] = system: E. coli; test: MMC99% of modified peptides, E. coli (Example 25); type: cell-based; settings: BHI diluted 1/100, pH approximately 6.7-6.9 (Table 21)
Protocol: as §1
as §2, with “examples 18-21” for “example 22”

[10] = system: S. aureus; test: MMC99% of modified peptides, S. aureus (Example 25); type: cell-based; settings: BHI diluted 1/100, pH approximately 6.7-6.9 (Table 21)
Protocol: as §1
as §2, with “examples 18-21” for “example 22”

[11] = system: E. coli O14; test: bactericidal activity against E. coli O14, comparison with EP-A-0 629 347 peptides (Example 7); type: cell-based
Protocol: (§5) In this example an in vitro test was performed to compare the bactericidal and fungicidal activity of the peptides according to the invention with peptides described in EP-A-0 629 347. The peptide according to the invention used was peptide 4, and the peptides according to EP-A-0 629 347 called Morinaga 10, Morinaga 11, Morinaga 12, and Morinaga 13.
(§6) The peptides were incubated with E. coli O14 and Candida albicans. Two concentrations of C. albicans yeast cells were tested, 5·10^6 and 5·10^3 per ml. Different concentrations of the peptides were tested.
(§7) After the incubation, samples were taken for bacterial plating. Serial dilutions of tenfold steps were used in the experiments marked with I in table 5 and of twofold steps in the experiments marked with II.

[12] = system: Candida albicans; test: fungicidal activity against Candida albicans, comparison with EP-A-0 629 347 peptides (Example 7); type: cell-based; settings: C. albicans, I (tenfold steps)
Protocol: as §5, §6, §7

[13] = system: C. albicans (ATCC64549); type: cell-based
Protocol: as §1
(§8) C. albicans (ATCC64549) and E. coli O6, respectively, were incubated with the different peptides. The experiments were performed with 1, 10, 25 and 100 μg/ml of peptide.

[14] = system: E. coli O6; type: cell-based
Protocol: as §1, §8

[15] = system: C. albicans yeast cells (ATCC64549); test: killing and growth inhibition of C. albicans at pH 4.5 (Example 11); type: cell-based; parameters: key to C. albicans inhibition (OD650): + = no increase in OD650 is seen; − = OD650 continues to increase; settings: pH 4.5, 1% BHI, 25 μg/ml of the peptide
Protocol: C. albicans yeast cells (ATCC64549) were incubated for 2 hours at pH 4.5 in BHI medium diluted to 1% of the original concentration containing 25 µg/ml of the peptide. Thereafter the fungal solutions were cultured on blood agar plates. OD650 was measured after incubation during an additional 18 hours. The fungicidal effect of the peptides on C. albicans was determined as the ability of the peptide to kill 100% and 99%, respectively, of the fungus, while the growth inhibitory effect was determined by measuring the OD650. An inhibitory effect existed when no increase in OD650 was recorded.

[16] = system: E. faecalis; test: killing of bacteria at fixed peptide concentration, E. faecalis (Example 12); type: cell-based; settings: peptide 25 μg/ml
Protocol: (§9) In this example, the peptides according to the invention were used to study the effect on the killing of different bacteria.
(§10) The peptides were used at a concentration of 25 μg/ml.

[17] = system: S. epidermis; test: killing of bacteria at fixed peptide concentration, S. epidermis (Example 12); type: cell-based; settings: peptide 25 μg/ml
Protocol: as §9, §10

[18] = system: S. aureus; test: killing of bacteria at fixed peptide concentration, S. aureus (Example 12); type: cell-based; settings: peptide 25 μg/ml
Protocol: as §9, §10

[19] = system: K. pneumoniae; test: killing of bacteria at fixed peptide concentration, K. pneumoniae (Example 12); type: cell-based; settings: peptide 25 μg/ml
Protocol: as §9, §10

[20] = system: P. aeruginosa; test: killing of bacteria at fixed peptide concentration, P. aeruginosa (Example 12); type: cell-based; settings: peptide 25 μg/ml
Protocol: as §9, §10

[21] = system: multiresistant S. aureus; test: bactericidal activity, multiresistant S. aureus (Example 18); type: cell-based; settings: multiresistant S. aureus 5.0×10^5 per ml
Protocol: In this example the bactericidal activity of two of the peptides according to the invention was studied in a test with a multiresistant S. aureus. A bacterial solution with a concentration of 5.0×10^5 S. aureus bacterial per ml was used. The concentration of each peptide needed to kill 99% of the bacteria (MMC99%) was determined after 2 hours and after 24 hours of incubation at 37° C.

[22] = E. coli O14, I: serial dilutions of tenfold steps

C[C@@H]1[C@H](O)[C@@H](C)/C=C/C=C/C=C/C=C/C=C/C=C/C=C/[C@H](O[C@@H]2O[C@H](C)[C@@H](O)[C@H](N)[C@@H]2O)C[C@@H]2O[C@](O)(C[C@@H](O)C[C@@H](O)[C@H](O)CC[C@@H](O)C[C@@H](O)CC(=O)O[C@H]1C)C[C@H](O)[C@H]2C(=O)O [Amphotericin, amphotericin, reference compound]
MMC99% [1]: 2.5 µg/mL | MIC ([1]; Candida albicans, read-out: MIC): 0.6 µg/mL (≈ 0.649 µM)

OC(Cn1cncn1)(Cn1cncn1)c1ccc(F)cc1F [Fluconazole, fluconazole, reference compound]
MMC99% [2]: >500 µg/mL | MIC [2]: > 500 µg/mL

Nc1[nH]c(=O)ncc1F [Flucytosine, flucytosine, reference compound]
MMC99% [2]: >500 µg/mL | MIC [2]: 250 µg/mL (≈ 1940 µM)

C-F-A-L-K-K-A-M-K-K-V-R (CFALKKAMKKVR) [SEQ. ID. NO. 96]
MMC99% [3]: 12 | MMC99% [4]: 6 | MMC99% [5]: 12

C-F-A-W-K-R-N-M-R-K-V-R (CFAWKRNMRKVR) [SEQ. ID. NO. 93]
MMC99% [3]: 12 | MMC99% [4]: 6 | MMC99% [5]: 6 | MMC99% [6]: 5 | MMC99% [7]: 5

C-F-A-W-Q-R-A-M-R-K-V-R (CFAWQRAMRKVR) [SEQ. ID. NO. 94]
MMC99% [3]: 12 | MMC99% [4]: 6 | MMC99% [5]: 6

C-F-Q-L-Q-K-N-M-K-K-V-R (CFQLQKNMKKVR) [SEQ. ID. NO. 95]
MMC99% [3]: 12 | MMC99% [4]: 6 | MMC99% [5]: 6

C-F-Q-W-K-R-N-M-R-K-V-R (CFQWKRNMRKVR) [SEQ. ID. NO. 91]
MMC99% [3]: 6 | MMC99% [4]: 6 | MMC99% [5]: 6 | MMC99% [6]: 5 | MMC99% [7]: 5

C-F-Q-W-Nle-R-N-M-R-K-V-R (CFQW[Nle]RNMRKVR) [SEQ. ID. NO. 88]
MMC99% [8]: 6 | MMC99% [9]: 12 | MMC99% [10]: 3.5 | MMC99% [6]: 5 | MMC99% [7]: 10

F-Q-W-Q-R [Morinaga 11]
Concentration of agent for 100% killing [11, 22]: >500 µg/mL | Concentration of agent for 100% killing ([12]; 5 · 10^3 yeast cells per ml): >2000 µg/mL | Concentration of agent for 100% killing ([12]; 5 · 10^6 yeast cells per ml): >2000 µg/mL

F-Q-W-Q-R-N (FQWQRN) [Morinaga 10]
Concentration of agent for 100% killing [11, 22]: >500 µg/mL | Concentration of agent for 100% killing ([11]; E. coli O14, II: serial dilutions of twofold steps): 1000 µg/mL | Concentration of agent for 100% killing ([12]; 5 · 10^3 yeast cells per ml): >2000 µg/mL | Concentration of agent for 100% killing ([12]; 5 · 10^6 yeast cells per ml): >2000 µg/mL

KCFQWQRNMRKVR [Peptide 48]
MIC ([13]; ATCC64549): 10 µg/mL | MMC99% ([13]; C. albicans, tested at 1, 10, 25 and 100 μg/ml of peptide): 10 µg/mL | MMC99% ([14]; E. coli O6, tested at 1, 10, 25 and 100 μg/ml of peptide): 10 µg/mL | MIC ([14]; O6): 10 µg/mL | C. albicans inhibition (OD650) ([15]; OD650 after an additional 18 hours): + | C. albicans killing: 99% ([15]; 2 hours): + (+ = 100/99% of the bacteria are killed) | C. albicans killing: 100% ([15]; 2 hours): + (+ = 100/99% of the bacteria are killed) | killing of bacteria: E. faecalis [16]: + (+ = 99% of the bacteria are killed) | killing of bacteria: S. epidermis [17]: + (+ = 99% of the bacteria are killed) | killing of bacteria: S. aureus [18]: + (+ = 99% of the bacteria are killed) | killing of bacteria: K. pneumoniae [19]: + (+ = 99% of the bacteria are killed) | killing of bacteria: P. aeruginosa [20]: + (+ = 99% of the bacteria are killed) | MMC99% ([21]; 2 hours at 37° C.): 5.0 µg/mL | MMC99% ([21]; 24 hours at 37° C.): ≦0.32 μg/ml

Q-W-Q-R [Morinaga 12]
Concentration of agent for 100% killing [11, 22]: >500 µg/mL | Concentration of agent for 100% killing ([12]; 5 · 10^3 yeast cells per ml): >2000 µg/mL | Concentration of agent for 100% killing ([12]; 5 · 10^6 yeast cells per ml): >2000 µg/mL

SEQ. ID. NO. 97: listed under the third and fourth embodiments; sequence only in the appended sequence listing (CFALKKAMKKVR)
MMC99% [3]: 12 | MMC99% [4]: 6 | MMC99% [5]: 6

W-Q-R [Morinaga 13]
Concentration of agent for 100% killing [11, 22]: >500 µg/mL | Concentration of agent for 100% killing ([12]; 5 · 10^3 yeast cells per ml): >2000 µg/mL | Concentration of agent for 100% killing ([12]; 5 · 10^6 yeast cells per ml): >2000 µg/mL
